Experimental data: patent US5609749A, “Electrochemical assay method with novel p-phenylenediamine compound” (Mochida Pharmaceutical Co., Ltd., priority 1993, dated 1997)

Tests used:
[1] = target: T1, Glucose oxidase (GOD) (Aspergillus niger, UniProt P13006); assay: Electron transfer activity 1: GOD-glucose-compound, current at +300 mV; format: biochemical; details: +300 mV vs Ag/AgCl, pH 6.0
T1 construct: purchased Boehringer-Mannheim
Description: Measurement of electron transfer activities of TEPD, TCPD, THEPD, TDHPD, HTEPD, N,N'-BHPD, N,N-BHDPD, N,N'-BHDPD, and p-phenylenediamine derivatives having substituted amino group by reacting p-phenylenediamine with propyleneoxide--1
Glucose oxidase (GOD, manufactured by Boehringer-Mannheim) was dissolved in 0.1M phosphate buffer (pH 6.0) containing 0.1M NaCl to prepare 0M and 4.0×10^-4 M GOD solutions. Also, glucose (manufactured by Junsei Kagaku) was dissolved in the same buffer to prepare a 1.5M solution. In the same manner, each of the TEPD, TCPD, THEPD, TDHPD, HTEPD, N,N-BHDPD, N,N'-BHPD, N,N'-BHDPD, and p-phenylenediamine derivatives having substituted amino group by reacting p-phenylenediamine with propyleneoxide obtained in Synthesis Examples 1 to 9 was dissolved in the same buffer to prepare a 5.0×10^-3 M solution.
Each of these solutions was mixed in 0.1M phosphate buffer (pH 6.0) containing 0.1M NaCl in the following mixing ratio just before the measurement to prepare solutions of the following compositions A and B, and current was measured continuously in the presence (composition A) or absence (composition B) of GOD.
Using the same apparatus of Test Example 2, electric current was measured in the presence (composition A) or absence (composition B) of GOD for 10 minutes under application of potential of +300 mV (vs Ag/AgCl) to the working electrode.

[2] = Current response of electron mediators in buffer solution and in the presence of blood, urine
Excerpt: Of these oxidation-reduction enzymes, glucose oxidase (GOD) is used in enzyme electrodes for the measurement of blood glucose level and horseradish peroxidase (HRPO) is used as a label enzyme in specific binding assays such as DNA hybridization, immunoassay and the like. […] However, these electron mediators were not able to show stable and reproducible response in the presence of blood, urine and the like because of the interfering substances contained therein.

[3] = Dry chemistry type chips: filter paper impregnated with mediator solution and dried on an electrode; details: mediator dried on cellulose or glass filter paper, dissolved by liquid sample
Excerpt: In addition, the present inventors have attempted to prepare a dry chemistry type chips by impregnating a piece of cellulose filter paper or glass filter paper with a solution of HQ, PPD, TMPD or TEPD and drying the resulting piece on an electrode (by freeze-drying, vacuum drying, air-drying or the like) or arranging it on an electrode after drying so that the impregnated electron mediator can dissolve in a liquid sample at the time of measurement.

[4] = system: hCG; assay: Measurement of hCG in whole blood with specific binding assay device (MEDIA method), freeze-dried electron mediator member; set-up: species or system human; details: hCG 0 vs 1,000 IU/l whole blood, -150 mV
Description: The specific binding assay device shown in FIGS. 2 and 3 was constructed, and concentration of hCG in samples was measured using the device. The HRPO-HM81 obtained in the above step (1) was diluted with a phosphate buffer (pH 6.0) containing 5% normal rabbit serum (NRS), 10% saccharose and 0.1M NaCl to prepare a solution having a peroxidase activity of 0.63 U/ml. Next, 140 μl of the solution was spotted on a circular filter paper piece of 12 mm in diameter punched out from glass fiber filter paper (GA100, manufactured by Advantech Toyo) and then freeze-dried to obtain an HRPO-HM81 freeze-dry member to be used as the labeled antibody-impregnatedmember 14. The THEPD obtained in Synthesis Example 3 was dissolved in a phosphate buffer (pH 6.0) containing 0.1M NaCl to prepare a 5.0 mM solution. Next, 140 μl of the solution was spotted on a circular filter paper piece of 12 mm in diameter punched out from glass fiber filter paper (GA100, manufactured by Advantech Toyo) and then freeze-dried to obtain a THEPD freeze-dry member to be used as the electron mediator-impregnated member 16 of the present invention. The TEPD obtained in Synthesis Example 1 was dissolved in a phosphate buffer (pH 6.0) containing 1M NaCl to prepare a 5.0 mM solution. […]

T1 sequence (P13006 17-605): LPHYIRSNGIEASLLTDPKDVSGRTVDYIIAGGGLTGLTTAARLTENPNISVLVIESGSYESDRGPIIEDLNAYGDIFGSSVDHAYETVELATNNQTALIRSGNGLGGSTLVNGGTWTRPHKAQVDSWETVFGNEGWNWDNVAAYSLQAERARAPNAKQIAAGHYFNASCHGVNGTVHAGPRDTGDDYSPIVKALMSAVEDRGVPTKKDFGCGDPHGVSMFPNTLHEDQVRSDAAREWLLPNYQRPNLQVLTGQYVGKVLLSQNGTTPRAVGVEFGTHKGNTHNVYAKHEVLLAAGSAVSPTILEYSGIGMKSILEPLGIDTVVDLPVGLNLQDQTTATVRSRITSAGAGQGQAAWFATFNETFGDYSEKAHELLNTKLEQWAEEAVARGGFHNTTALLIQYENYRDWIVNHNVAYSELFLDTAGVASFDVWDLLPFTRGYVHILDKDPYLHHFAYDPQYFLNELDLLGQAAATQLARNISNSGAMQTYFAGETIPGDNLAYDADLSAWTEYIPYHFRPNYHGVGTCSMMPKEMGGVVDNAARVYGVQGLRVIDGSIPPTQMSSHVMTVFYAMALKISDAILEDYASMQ

SMILES | function as electron mediator between GOD and the electrode [1] | current response ([2]; in a buffer solution) | response in the presence of blood, urine and the like ([2]; interfering substances in blood, urine) | current response and characteristics of dry chemistry type chips [3] | electric current response to hCG concentration [4]
CCN(CC)c1ccc(N(CC)CC)cc1.Cl.Cl [TEPD, N,N,N',N'-tetraethyl-p-phenylenediamine dihydrochloride, reference compound] | function as a reversible electron mediator between GOD and the electrode | excellent current response | interference | low current response and extremely poor characteristics | the electric current did not increase in response to the concentration of hCG
Cl.Cl.OCCN(CCO)c1ccc(N(CCO)CCO)cc1 [THEPD, N,N,N',N'-tetrakis-(2'-hydroxyethyl)-p-phenylenediamine dihydrochloride] | function as a reversible electron mediator between GOD and the electrode | – | – | – | the reduction current became high in response to the concentration of hCG
